This assay can be described thus: Corrosion inhibition efficiency by electrochemical impedance spectroscopy (EIS), three-electrode cell. Particulars: 40° C., 3 hours. As to the method:
Evaluation Using Electrochemical Impedance Spectroscopy (EIS)
The evaluation of corrosion inhibiting properties of the individual structures and binary compositions was carried out in a conventional electrochemical cell (E) with a three electrode arrangement as the one shown in FIG. 1. This cell allows maintaining stirring and constant temperature during development of measurement.
The inhibiting formulations to be evaluated are added in the desired concentration in the test solution (D), whereas a stirring of 2000 rpm and a temperature of 40° C. are maintained. […] The system is maintained under stirring and constant temperature for 3 hours.
After 3 hours, the electrochemical impedance spectrum is obtained in a range of 10 kHz and 10 mHz frequency and the resistance related to corrosion and together with that obtained in an identical experiment but only with the test solution was obtained from this spectrum; the corrosion inhibition efficiency was calculated.

Where [1] appears, read: test water SP1, concentration 50 mg/L.
The mark [2] stands for this setting: test water SP1, concentration 500 mg/L.
The mark [3] stands for this setting: test water SP1, concentration 2500 mg/L.

The structures appear in SMILES notation.

For the compound `CCCCCCNCn1nnc2ccccc21` [BZC6, N-(1H-benzotriazole-1-methyl)-hexane-1-amine], the Inhibition efficiency % was 18.2% under setting [1], 35.3% under setting [2] and 73.7% under setting [3].
The like results for `CCCCCCCCCCCCN=Cc1c[nH]cn1` [IMC12, N-[1H-imidazole-(4-methylidene)]-dodecane-1-amine] were, in that order, 23.1%, 80.9% and 95.4%.
Regarding `CCCCn1cc[n+](C)c1.[Br-]` [MIMC4, 1-butyl-3-methylimidazolium bromide], the Inhibition efficiency % reads like this: under setting [1], 15.2%; under setting [2], 61.9%; under setting [3], 76.0%.
The like results for `CCCCCCCCCCCCCCN=Cc1c[nH]cn1` [IMC14, N-[1H-imidazole-(4-methylidene)]-tetradecane-1-amine] were, in that order, 19.8%, 78.9% and 98.0%.

The values are drawn from patent US10676829B2, “Corrosion inhibition composition for pipelines, process of elaboration and synthesis” (INSTITUTO MEXICANO DEL PETROLEO, priority 2013, dated 2020).
